Broadly, the IC50 is the concentration that gives 50% inhibition.

The experiment has as its target T1, PfFNT V196L (Plasmodium falciparum, UniProt O77389, V196L).
T1 sequence (O77389 1-309 V196L): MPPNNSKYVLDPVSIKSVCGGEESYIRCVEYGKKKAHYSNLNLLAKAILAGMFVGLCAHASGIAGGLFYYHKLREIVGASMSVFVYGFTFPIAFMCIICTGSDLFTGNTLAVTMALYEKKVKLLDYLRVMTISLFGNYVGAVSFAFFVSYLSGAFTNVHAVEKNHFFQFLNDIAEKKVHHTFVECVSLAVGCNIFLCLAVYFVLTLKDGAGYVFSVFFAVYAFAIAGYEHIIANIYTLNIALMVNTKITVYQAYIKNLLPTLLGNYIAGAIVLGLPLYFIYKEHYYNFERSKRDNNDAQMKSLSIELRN
It is filed as cell-based. As to conditions: pH 6.8; read-out: IC50, inhibition of 14C-lactate transport.

Consider `O=C(/C=C(\O)C(F)(F)C(F)(F)F)c1cccnc1` [BH267.meta], for which the IC50 was found to be 850 ± 50 nM. For the molecule `COc1ccc2c(c1)OC(O)(C(F)(F)C(F)(F)F)CC2=O` (centres unmarked) [MMV007839], the IC50 was 730 ± 70 nM.
